Two compounds from ChEMBL document CHEMBL1128116, “Synthesis and resolution of -(aminomethyl)-4-chlorobenzeneethanesulfinic acid a potent gabaB receptor ligand” (Bioorg Med Chem Lett, 1995) can be followed below.

Experiment [1] is described as follows: Inhibitory activity against Gamma-aminobutyric acid A (GABA-A) receptor. On the set-up: species or system Rattus norvegicus.
The species entered for experiment [2] is Cavia porcellus. Description: In vitro inhibition against electrical field stimulated neuronal cholinergic contractions of guinea pig trachea. It is filed as functional.

Some results are limits rather than exact numbers.

For orientation: IC50 means the point on the concentration scale where inhibition reaches its midpoint. High values mean weaker potency in that assay, low ones greater potency in that assay. What is called IC30 is the point of the concentration-response curve where the effect stands at 30%. For `NCC(CS(=O)O)c1ccc(Cl)cc1` (racemic), the IC50 in experiment [1] was > 100 µM. In addition, the IC30 in experiment [2] (Cavia porcellus, Trachea, read-out: IC30) amounted to 22 µM. Turning to `NCC(CS(=O)O)c1ccc(Cl)cc1` (single isomer, unassigned; (-)), the IC30 in experiment [2] is 13.9 µM.
